# Data from US20220249606A1, “Method of treatment of degenerative diseases caused by membrane channel-forming peptides fragments” (Zarbio, priority 2021, published 2022).
# Entries after “also recorded” stand apart in the source; their conditions may differ. Where two headings read alike, the source gives them in different places.
# How the values were obtained:
# [1] = Flow cytometric calcium permeabilization of phosphatidylserine liposomes (Fluo-3/DiD); format: biochemical; conditions: for permeabilization of negatively charged (phosphatidylserine) liposomes to calcium: 400 nm liposomes, Fluo-3, flow cytometer
# Method: (§1) The figure is a composite of data which was presented and analyzed in detail in (Zaretsky and Zaretskaia 2020, Zaretsky and Zaretskaia 2020). Liposomes (400 nm) were made of either phosphatidylserine (A-E, negatively charged lipid) or phosphatidylcholine (F-H, neutral lipid) with added DiD and were extruded in the Ca-free buffer containing 1 mM Fluo-3. After the addition of calcium, aliquots of peptide were added. Ionomycin was used as a positive control. Fluorescence of liposomes was analyzed using a flow cytometer. Each dot at the graph represent a single liposome registered in the flow. The intensity of DiD fluorescence characterizes the amount of membrane material in the liposome, while the fluorescence of Fluo-3 depends on the intraliposomal presence of calcium. […] The liposomes inside rectangle (area R1) are permeabilized, and the number of liposomes which were counted to be within the area is shown.
# Liposomes with embedded ion-sensitive probe are used as a test system. Liposomes are extruded from phosphatidylserine containing membrane probe (i.e. DiD) in a calcium-free buffer containing ion-sensitive probe (i.e. Fluo-4) and volume probe (i.e. dextran-tetramethylrhodamin) or membrane probe (DiD). Extravesicular probes are cleared using either centrifugation, or dialysis. After the addition of calcium, the intravesicular calcium-sensing probe remain non-fluorescent because membranes are not permeable to calcium. If membrane channels are formed, calcium enters permeable liposomes, saturates the calcium-sensing dye, so the liposome becomes fluorescent. The number of fluorescent liposomes is an estimate of the number of channel-forming units in the solution.
# [2] = Flow cytometric calcium permeabilization of phosphatidylcholine liposomes (Fluo-3/DiD); format: biochemical; conditions: 400 nm liposomes, Fluo-3, flow cytometer
# Method: as §1
# [3] = cited from earlier work
# [4] = system: Aβ-induced apoptosis in the brain; conditions: cited from earlier work; for Aβ-induced apoptosis (TUNEL marker in the brain) / accumulation of Aβ immunoreactivity / amyloid: chronic Aβ infusion with simultaneous i.c.v. infusion of inhibitor
# [5] = molecular target: amyloid channels (Homo sapiens, UniProt P05067); conditions: cited from earlier work
# [6] = system: 15 cells derived from pancreatic islets of Langerhans; conditions: cited from earlier work; for beta-amyloid-induced drop in cell viability: two cell lines, not specified
# [7] = system: rat primary cortical cultures; conditions: MTT, different concentrations of Aβ; cited from earlier work
# [8] = system: 15 cells derived from pancreatic islets of Langerhans; conditions: cited from earlier work; for amylin-induced drop in cell viability / cellular toxicity: pancreatic islet cell line
# [9] = system: Aβ1-42 toxicity; conditions: Aβ1-42, Aksenov 1996; cited from earlier work
# [10] = system: Aβ1-42-induced drop of cell survival; conditions: Tizon 2010; cited from earlier work
# [11] = MTT, listed as al-anti-chymotrypsin
# amyloid channels, sequence (P05067 672-711): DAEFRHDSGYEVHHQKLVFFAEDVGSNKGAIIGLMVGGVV
molecule,measurement,setting,value
"Aβ25-35: positively charged short beta-amyloid fragment, channel-forming (GSNKGAIIGLM; Amyloid-beta protein 42; UniProt P05067 696-706, looked up, fragment)",permeabilization of negatively charged (phosphatidylserine) liposomes to calcium,[1],Membrane permeabilization occurs; also recorded: creates multiple liposomes permeable to calcium
same,molecules of peptide out of which one channel is formed,[1]; model conditions,approximately 10^12 molecules
same,permeabilization of neutral (phosphatidylcholine) liposomes to calcium,[2],does not permeabilize liposomes; also recorded: not permeabilized
same,share of channels with high conductance,"[3]; acidic pH (pH 5.0), 20 μM peptide",more than 30%
same,conductance of channels formed (upper value),[3]; planar lipid bilayers,up to 1 nS
"Aβ22-35: longer beta-amyloid fragment without positive charge, non-channel-forming (EDVGSNKGAIIGLM; Amyloid-beta protein 42; UniProt P05067 693-706, looked up, fragment)",permeabilization of negatively charged (phosphatidylserine) liposomes to calcium,[1],does not create a noticeable number of channels; also recorded: does not permeabilize liposomes
Aβ1-42: full-length amyloid peptide,permeabilization of negatively charged (phosphatidylserine) liposomes to calcium,[1],ineffective; also recorded: does not permeabilize liposomal membranes
CC(=O)N[C@@H](CC(C)C)C(=O)N[C@@H](CC(C)C)C(=O)N[C@H](C=O)CCCNC(=N)N [leupeptin],Aβ-induced apoptosis (TUNEL marker in the brain),[4]; rats,promoted apoptosis
same,accumulation of Aβ immunoreactivity / amyloid,[4]; rats,accumulation of extracellular and intracellular Aβ immunoreactivity
same,"apoptosis by the inhibitor itself (spontaneously occurring, TUNEL)","[4]; rats, inhibitor without Aβ",tends to increase apoptosis
NC(CO)(CO)CO [tromethamine],blockade of smaller amyloid channels (<400 pS),[5],effectively blocked
same,blockade of super-high conductance giant channels (>1 nS),[5],less effective
C[C@H](CCC(=O)O)C[C@H](C)C[C@H](C)C(=O)/C=C(\O)[C@H](C)C[C@H](C)C/C=C/[C@@H](C)[C@@H](O)[C@@H](C)[C@@H](O)C[C@@H]1CC[C@@](C)([C@H]2CC[C@@](C)([C@@H](C)O)O2)O1 [ionomycin],permeabilization of negatively charged (phosphatidylserine) liposomes to calcium,[1],permeabilizes liposomes
same,permeabilization of neutral (phosphatidylcholine) liposomes to calcium,[2],permeabilizes thousands of liposomes
aprotinin,"apoptosis by the inhibitor itself (spontaneously occurring, TUNEL)","[4]; rat, in vivo",tends to decrease even spontaneously occurring apoptosis
same,Aβ-induced apoptosis (TUNEL marker in the brain),[4]; rats,prevented Aβ-induced apoptosis
same,accumulation of Aβ immunoreactivity / amyloid,[4]; rats,did not exacerbate intracellular accumulation of amyloid
"α1-anti-chymotrypsin (protein, UniProt P01011 24-423, looked up) Alpha-1-antichymotrypsin: HPNSPLDEENLTQENQDRGTHVDLGLASANVDFAFSLYKQLVLKAPDKNVIFSPLSISTALAFLSLGAHNTTLTEILKGLKFNLTETSEAEIHQSFQHLLRTLNQSSDELQLSMGNAMFVKEQLSLLDRFTEDAKRLYGSEAFATDFQDSAAAKKLINDYVKNGTRGKITDLIKDLDSQTMMVLVNYIFFKAKWEMPFDPQDTHQSRFYLSKKKWVMVPMMSLHHLTIPYFRDEELSCTVVELKYTGNASALFILPDQDKMEEVEAMLLPETLKRWRDSLEFREIGELYLPKFSISRDYNLNDILLQLGIEEAFTSKADLSGITGARNLAVSQVVHKAVLDVFEEGTEASAATAVKITLLSALVETRTIVRFNRPFLMIIVPTDTQNIFFMSKVTNPKQA",optimal dose for inhibition of amyloid toxicity,"[6]; 15 cells (IS cells), MTT, different concentrations of Aβ",10^−7 M
same,beta-amyloid-induced drop in cell viability,[6]; MTT,can protect against Aβ-induced drop in cell viability
same,beta-amyloid-induced drop in cell viability,[6]; [11],prevented
same,effect of further increase of ACT concentration on protection against beta-amyloid,"[6]; above optimal dose, bell-shaped dose-dependence",disappearance of protection; also recorded: bell-shaped dose-dependence of protection
same,protection against beta-amyloid-induced drop in cell viability,"[6]; in some conditions, cell line not specified (15 cells or rat primary cortical cultures), MTT",100%
same,optimal dose for inhibition of amyloid toxicity,[7],10^−8 M
same,amylin-induced drop in cell viability / cellular toxicity,[8]; MTT,prevent amylin-induced cellular toxicity
same,amylin-induced drop in cell viability / cellular toxicity,[8]; [11],prevented
same,protection against amylin,[8]; MTT,< 100%
same,effect of further increase of ACT concentration on protection against amylin,[8]; above optimal dose,significantly decreased the protective effect
same,effect on fibril formation,[9],without affecting fibril formation
"cystatin C (protein, UniProt P01034 27-146, looked up) Cystatin-C: SSPGKPPRLVGGPMDASVEEEGVRRALDFAVGEYNKASNDMYHSRALQVVRARKQIVAGVNYFLDVELGRTTCTKTQPNLDNCPFHDQPHLKRKAFCSFQIYAVPWQGTMTLSKSTCQDA",drop of cell survival induced by Aβ1-42,[10],prevented the drop of cell survival induced by Aβ1-42
